Assay results taken from ChEMBL document CHEMBL4376865, “Discovery and Characterization of 1H-1,2,3-Triazole Derivatives as Novel Prostanoid EP4 Receptor Antagonists for Cancer Immunotherapy” (J Med Chem, 2020).

How the values were obtained:
in vivo [1] = details: BALB/c, mouse, po, 5 mg/kg
Description: AUC (0 to infinity) in BALB/c mouse at 5 mg/kg, po measured upto 24 hrs by LC-MS/MS analysis

CYP2B6 = target: T1, CYP2B6 (Homo sapiens, UniProt P20813); test: Inhibition of CYP2B6 in human liver microsomes at 20 uM incubated for 60 mins by HPLC analysis relative to control; assay type: ADME
T1 sequence (P20813 whole entry): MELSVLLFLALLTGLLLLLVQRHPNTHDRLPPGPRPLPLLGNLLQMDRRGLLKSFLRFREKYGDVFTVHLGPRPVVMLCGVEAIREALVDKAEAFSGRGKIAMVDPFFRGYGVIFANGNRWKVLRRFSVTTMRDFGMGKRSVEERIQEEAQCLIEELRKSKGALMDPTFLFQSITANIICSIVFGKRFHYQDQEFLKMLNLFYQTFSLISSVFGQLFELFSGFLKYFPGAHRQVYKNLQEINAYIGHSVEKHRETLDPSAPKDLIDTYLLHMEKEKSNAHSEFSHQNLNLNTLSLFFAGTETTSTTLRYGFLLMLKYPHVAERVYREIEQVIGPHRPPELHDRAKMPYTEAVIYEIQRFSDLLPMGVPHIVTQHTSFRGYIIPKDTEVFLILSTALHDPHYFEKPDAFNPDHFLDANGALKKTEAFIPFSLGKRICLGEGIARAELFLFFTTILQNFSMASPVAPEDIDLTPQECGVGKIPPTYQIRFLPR

in vivo [2] = details: BALB/c, mouse, iv, 1 mg/kg
in vitro [3] = details: CD1, mouse, liver microsomes
CYP2E1 = CYP2E1 (Homo sapiens, UniProt P05181); test: Inhibition of CYP2E1 in human liver microsomes at 20 uM using chlorzoxazone as substrate incubated for 60 mins by HPLC analysis relative to control; assay type: ADME; details: probe chlorzoxazone
Chain of CYP2E1 (P05181 whole entry): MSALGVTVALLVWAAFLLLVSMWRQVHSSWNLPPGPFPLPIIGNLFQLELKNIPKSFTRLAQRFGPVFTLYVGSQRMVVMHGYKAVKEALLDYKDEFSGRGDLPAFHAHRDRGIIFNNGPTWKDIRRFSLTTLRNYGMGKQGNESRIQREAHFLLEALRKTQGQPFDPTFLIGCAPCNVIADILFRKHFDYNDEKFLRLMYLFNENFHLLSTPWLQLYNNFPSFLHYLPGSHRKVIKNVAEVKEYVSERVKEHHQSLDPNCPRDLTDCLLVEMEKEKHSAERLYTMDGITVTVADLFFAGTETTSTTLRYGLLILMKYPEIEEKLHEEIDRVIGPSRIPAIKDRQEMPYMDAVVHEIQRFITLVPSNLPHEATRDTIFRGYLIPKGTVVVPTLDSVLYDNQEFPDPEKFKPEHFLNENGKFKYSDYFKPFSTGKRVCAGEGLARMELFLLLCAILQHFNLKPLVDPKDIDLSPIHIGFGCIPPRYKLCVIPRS

CYP2D6 = CYP2D6 (Homo sapiens, UniProt P10635); test: Inhibition of CYP2D6 in human liver microsomes at 20 uM using dextromethorphan as substrate incubated for 60 mins by HPLC analysis relative to control; assay type: ADME; details: probe dextromethorphan
Chain of CYP2D6 (P10635 whole entry): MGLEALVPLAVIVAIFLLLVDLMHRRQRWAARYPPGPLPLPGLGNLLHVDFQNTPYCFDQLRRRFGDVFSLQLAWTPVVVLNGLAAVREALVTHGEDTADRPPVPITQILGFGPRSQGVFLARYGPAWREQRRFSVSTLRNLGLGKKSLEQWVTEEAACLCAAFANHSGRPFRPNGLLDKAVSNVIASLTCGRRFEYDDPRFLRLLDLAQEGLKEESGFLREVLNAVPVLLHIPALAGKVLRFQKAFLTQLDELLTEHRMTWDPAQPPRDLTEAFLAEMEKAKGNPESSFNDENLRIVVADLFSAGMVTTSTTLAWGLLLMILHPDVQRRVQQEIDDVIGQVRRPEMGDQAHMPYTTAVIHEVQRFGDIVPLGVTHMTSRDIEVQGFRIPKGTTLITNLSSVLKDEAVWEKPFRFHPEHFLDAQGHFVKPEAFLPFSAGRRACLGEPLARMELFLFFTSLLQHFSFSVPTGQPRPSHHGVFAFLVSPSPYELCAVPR

in vitro [4] = details: human, liver microsomes
[5] = target: Prostaglandin E2 receptor EP4 subtype (Mus musculus, UniProt P32240); test: Antagonist activity at mouse EP4 expressed in CHO cells coexpressing G16-alpha assessed as intracellular calcium flux preincubated for 15 mins followed by addition of PGE2 by calcium flux assay; assay type: functional, cell-based
Chain of Prostaglandin E2 receptor EP4 subtype (Mus musculus, UniProt P32240) (P32240 whole entry): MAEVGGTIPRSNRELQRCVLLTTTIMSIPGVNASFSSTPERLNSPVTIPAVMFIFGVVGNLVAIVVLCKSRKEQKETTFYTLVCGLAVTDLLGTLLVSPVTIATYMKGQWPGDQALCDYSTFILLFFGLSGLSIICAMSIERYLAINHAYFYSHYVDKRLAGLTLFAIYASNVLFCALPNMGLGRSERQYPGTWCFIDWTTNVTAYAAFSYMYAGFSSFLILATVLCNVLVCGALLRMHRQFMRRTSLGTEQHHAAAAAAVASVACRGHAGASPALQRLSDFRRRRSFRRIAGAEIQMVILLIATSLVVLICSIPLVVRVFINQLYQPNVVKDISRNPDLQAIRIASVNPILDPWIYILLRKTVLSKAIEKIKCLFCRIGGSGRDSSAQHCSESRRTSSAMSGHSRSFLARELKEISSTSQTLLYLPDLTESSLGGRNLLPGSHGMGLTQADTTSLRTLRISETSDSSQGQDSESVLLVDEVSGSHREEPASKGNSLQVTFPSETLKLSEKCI

[6] = target: Prostaglandin E2 receptor EP2 subtype (Homo sapiens, UniProt P43116)
Chain of Prostaglandin E2 receptor EP2 subtype (P43116 whole entry): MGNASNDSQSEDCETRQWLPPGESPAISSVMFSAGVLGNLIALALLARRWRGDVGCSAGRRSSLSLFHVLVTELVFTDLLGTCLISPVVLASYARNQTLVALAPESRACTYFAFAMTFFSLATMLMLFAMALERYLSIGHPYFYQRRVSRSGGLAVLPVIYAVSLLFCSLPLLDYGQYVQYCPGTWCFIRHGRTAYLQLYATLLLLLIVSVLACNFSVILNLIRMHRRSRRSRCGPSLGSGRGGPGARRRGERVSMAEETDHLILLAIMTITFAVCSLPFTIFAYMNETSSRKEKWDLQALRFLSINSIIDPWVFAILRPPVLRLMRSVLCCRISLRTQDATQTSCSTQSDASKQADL
Description: Antagonist activity at human EP2 expressed in CHO cells coexpressing G16-alpha assessed as intracellular calcium flux preincubated for 15 mins followed by addition of PGE2 by calcium flux assay

Cytochrome P450 3A4 = Cytochrome P450 3A4 (Homo sapiens, UniProt P08684); test: Inhibition of CYP3A4 in human liver microsomes at 20 uM using testosterone as substrate incubated for 60 mins by HPLC analysis; assay type: ADME; details: 1 h
Chain of Cytochrome P450 3A4 (P08684 whole entry): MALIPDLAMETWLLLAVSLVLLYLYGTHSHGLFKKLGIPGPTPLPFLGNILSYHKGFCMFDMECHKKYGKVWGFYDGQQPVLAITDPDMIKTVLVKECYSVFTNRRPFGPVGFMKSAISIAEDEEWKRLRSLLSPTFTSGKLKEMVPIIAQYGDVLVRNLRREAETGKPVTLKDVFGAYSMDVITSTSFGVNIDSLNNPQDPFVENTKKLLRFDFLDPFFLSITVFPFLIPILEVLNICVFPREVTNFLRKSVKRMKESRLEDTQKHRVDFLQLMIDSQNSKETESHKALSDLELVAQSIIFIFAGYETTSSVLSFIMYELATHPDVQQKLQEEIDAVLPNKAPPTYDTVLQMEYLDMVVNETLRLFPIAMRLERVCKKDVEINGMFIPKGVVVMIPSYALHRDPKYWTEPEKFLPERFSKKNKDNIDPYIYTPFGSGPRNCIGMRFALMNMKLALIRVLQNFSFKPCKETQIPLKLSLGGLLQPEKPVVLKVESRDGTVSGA

[7] = Clearance in BALB/c mouse at 1 mg/kg, iv measured upto 24 hrs by LC-MS/MS analysis; details: in vivo
in vitro [8] = details: human, liver microsomes; remark: listed apart in the source
[9] = Apparent volume of distribution in BALB/c mouse at 1 mg/kg, iv measured upto 24 hrs by LC-MS/MS analysis; details: in vivo
in vitro [10] = details: CD1, mouse, liver microsomes; remark: listed apart in the source
in vivo [11] = details: BALB/c, mouse, po, 5 mg/kg; remark: listed apart in the source
Description: Oral bioavailability in BALB/c mouse at 5 mg/kg measured upto 24 hrs by LC-MS/MS analysis

[12] = Metabolic stability in CD1 mouse liver microsomes assessed as compound remaining at 10 uM incubated for 1 hr
[13] = Volume of distribution at steady state in BALB/c mouse at 1 mg/kg, iv measured upto 24 hrs by LC-MS/MS analysis; details: in vivo
[14] = target: T2, Prostaglandin E2 receptor EP1 subtype (Homo sapiens, UniProt P34995); test: Antagonist activity at human EP1 expressed in CHO cells coexpressing G16-alpha assessed as intracellular calcium flux preincubated for 15 mins followed by addition of PGE2 by calcium flux assay; assay type: functional, cell-based
T2 sequence (P34995 whole entry): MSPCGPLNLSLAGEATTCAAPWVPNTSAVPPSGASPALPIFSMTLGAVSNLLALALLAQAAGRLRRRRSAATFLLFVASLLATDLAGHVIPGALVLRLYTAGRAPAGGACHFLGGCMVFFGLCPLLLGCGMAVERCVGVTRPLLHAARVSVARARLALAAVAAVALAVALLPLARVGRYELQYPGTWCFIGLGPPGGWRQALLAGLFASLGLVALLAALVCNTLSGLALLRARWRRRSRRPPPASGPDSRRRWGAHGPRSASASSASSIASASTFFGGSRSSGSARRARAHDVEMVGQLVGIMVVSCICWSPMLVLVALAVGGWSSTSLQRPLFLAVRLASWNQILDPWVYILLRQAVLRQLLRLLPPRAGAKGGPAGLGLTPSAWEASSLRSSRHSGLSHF

CYP1A2 = target: T3, CYP1A2 (Homo sapiens, UniProt P05177); test: Inhibition of CYP1A2 in human liver microsomes at 20 uM using phenacetin as substrate incubated for 30 mins by HPLC analysis relative to control; assay type: ADME; details: probe phenacetin
T3 sequence (P05177 whole entry): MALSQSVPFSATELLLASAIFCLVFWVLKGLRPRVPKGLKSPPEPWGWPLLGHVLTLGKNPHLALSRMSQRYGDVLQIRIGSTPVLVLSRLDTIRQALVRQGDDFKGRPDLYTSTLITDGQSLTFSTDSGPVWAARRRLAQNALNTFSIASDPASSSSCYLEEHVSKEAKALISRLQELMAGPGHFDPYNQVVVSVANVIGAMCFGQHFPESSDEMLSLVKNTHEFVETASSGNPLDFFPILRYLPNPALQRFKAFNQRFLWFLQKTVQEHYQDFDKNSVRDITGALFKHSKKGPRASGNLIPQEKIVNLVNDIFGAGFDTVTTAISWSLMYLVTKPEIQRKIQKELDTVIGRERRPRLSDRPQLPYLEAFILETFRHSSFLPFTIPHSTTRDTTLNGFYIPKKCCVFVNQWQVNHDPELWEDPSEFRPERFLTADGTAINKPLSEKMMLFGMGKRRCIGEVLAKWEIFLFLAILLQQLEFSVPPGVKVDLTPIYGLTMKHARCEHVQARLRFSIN

[15] = Metabolic stability in human liver microsomes assessed as compound remaining at 10 uM incubated for 1 hr
[16] = target: Prostaglandin E2 receptor EP4 subtype (Homo sapiens, UniProt P35408)
Chain of Prostaglandin E2 receptor EP4 subtype (Homo sapiens, UniProt P35408) (P35408 whole entry): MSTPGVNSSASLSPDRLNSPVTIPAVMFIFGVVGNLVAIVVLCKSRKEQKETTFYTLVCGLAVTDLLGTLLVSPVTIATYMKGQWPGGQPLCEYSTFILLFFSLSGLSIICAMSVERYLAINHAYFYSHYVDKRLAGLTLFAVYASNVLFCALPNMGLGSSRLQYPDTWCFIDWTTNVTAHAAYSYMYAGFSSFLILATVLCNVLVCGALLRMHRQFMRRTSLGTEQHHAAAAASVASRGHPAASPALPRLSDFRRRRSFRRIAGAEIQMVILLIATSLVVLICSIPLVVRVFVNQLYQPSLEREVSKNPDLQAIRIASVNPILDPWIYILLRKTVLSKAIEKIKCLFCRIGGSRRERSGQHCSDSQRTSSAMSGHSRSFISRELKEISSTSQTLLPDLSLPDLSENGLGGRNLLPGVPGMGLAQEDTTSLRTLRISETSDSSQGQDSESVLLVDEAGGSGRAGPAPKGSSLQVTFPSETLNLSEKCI
Description: Antagonist activity at human EP4 expressed in CHO cells coexpressing G16-alpha assessed as intracellular calcium flux preincubated for 15 mins followed by addition of PGE2 by calcium flux assay

[17] = Half life in BALB/c mouse at 5 mg/kg, po measured upto 24 hrs by LC-MS/MS analysis; details: in vivo
[18] = Half life in BALB/c mouse at 1 mg/kg, iv measured upto 24 hrs by LC-MS/MS analysis; details: in vivo
in vivo [19] = details: BALB/c, mouse, iv, 1 mg/kg; remark: listed apart in the source
[20] = target: T4, Prostaglandin E2 receptor EP3 subtype (Homo sapiens, UniProt P43115)
T4 sequence (P43115 whole entry): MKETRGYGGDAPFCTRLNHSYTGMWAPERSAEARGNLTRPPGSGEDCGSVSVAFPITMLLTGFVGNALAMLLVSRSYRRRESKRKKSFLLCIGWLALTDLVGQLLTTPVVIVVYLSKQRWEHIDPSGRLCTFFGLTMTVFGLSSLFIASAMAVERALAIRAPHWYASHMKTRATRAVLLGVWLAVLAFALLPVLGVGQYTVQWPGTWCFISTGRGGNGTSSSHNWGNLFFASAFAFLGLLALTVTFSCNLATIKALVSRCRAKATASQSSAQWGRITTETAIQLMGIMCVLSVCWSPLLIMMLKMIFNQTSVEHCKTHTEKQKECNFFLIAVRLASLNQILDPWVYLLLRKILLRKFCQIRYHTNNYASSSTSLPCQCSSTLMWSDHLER
Description: Antagonist activity at human EP3 expressed in CHO cells coexpressing G16-alpha assessed as intracellular calcium flux preincubated for 15 mins followed by addition of PGE2 by calcium flux assay

CYP2C9 = CYP2C9 (Homo sapiens, UniProt P11712); test: Inhibition of CYP2C9 in human liver microsomes at 20 uM using tolbutamide as substrate incubated for 60 mins by HPLC analysis relative to control; assay type: ADME; details: probe tolbutamide
Chain of CYP2C9 (P11712 whole entry): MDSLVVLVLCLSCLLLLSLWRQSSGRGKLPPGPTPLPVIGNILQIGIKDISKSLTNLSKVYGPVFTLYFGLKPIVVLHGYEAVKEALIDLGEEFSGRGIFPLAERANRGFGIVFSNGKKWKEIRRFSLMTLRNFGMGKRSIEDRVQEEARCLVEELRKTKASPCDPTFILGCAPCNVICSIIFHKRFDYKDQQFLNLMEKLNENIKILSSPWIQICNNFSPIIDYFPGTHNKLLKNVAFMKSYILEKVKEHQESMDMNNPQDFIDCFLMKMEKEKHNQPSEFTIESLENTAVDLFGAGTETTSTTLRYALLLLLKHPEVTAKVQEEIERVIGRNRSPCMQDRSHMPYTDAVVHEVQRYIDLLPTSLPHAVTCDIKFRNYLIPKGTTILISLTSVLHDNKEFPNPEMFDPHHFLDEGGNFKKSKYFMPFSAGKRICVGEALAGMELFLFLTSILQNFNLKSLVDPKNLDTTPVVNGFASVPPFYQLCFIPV

in vivo [21] = details: BALB/c, mouse, po, 5 mg/kg; remark: listed apart in the source
Description: Cmax in BALB/c mouse at 5 mg/kg, po measured upto 24 hrs by LC-MS/MS analysis

AUC(0-inf) at 24 h (in vivo [1]): 654 ng·h/mL
inhibition at 1 h, 20 µM (CYP2B6): 28%
AUC(0-inf) at 24 h (in vivo [2]): 332 ng·h/mL
half-life at 1 h, 10 µM (in vitro [3]): > 2.42 h
inhibition at 1 h, 20 µM (CYP2E1): 63%
inhibition at 1 h, 20 µM (CYP2D6): 25%
half-life at 1 h, 10 µM (in vitro [4]): > 2.42 h
IC50 [5]: 27.5 nM
IC50 [6]: > 10000 nM
inhibition (INH) (Cytochrome P450 3A4): Not Active
clearance at 24 h [7]: 50 mL/min/kg
microsomal CLint at 1 h, 10 µM (in vitro [8]): < 9.6 µL/min/mg
Vd at 24 h [9]: 14.5 L/kg
microsomal CLint at 1 h, 10 µM (in vitro [10]): < 9.6 µL/min/mg
bioavailability at 24 h (in vivo [11]): 40.9%
remaining at 1 h, 10 µM [12]: 75.5%
Vd at 24 h [13]: 4 L/kg
IC50 [14]: > 10000 nM
inhibition at 0.5 h, 20 µM (CYP1A2): 21%
remaining at 1 h, 10 µM [15]: 106%
IC50 [16]: 12.9 nM
half-life at 24 h [17]: 4.6 h
half-life at 24 h [18]: 3.3 h
Cmax at 24 h (in vivo [19]): 808 ng/mL
IC50 [20]: > 10000 nM
inhibition at 1 h, 20 µM (CYP2C9): 48%
Cmax at 24 h (in vivo [21]): 365 ng/mL
SMILES: C[C@H](NC(=O)c1c(-c2ccsc2)nnn1Cc1ccc(C(F)(F)F)cc1)c1ccc(C(=O)O)cc1
